In patent publication US6677311B1, “Inducible HSV-TK in transformed cell populations” (priority 1988, dated 2004):
Several values for one entry are separate records, joined by “and”; a condition that tells them apart may be missing. Equal entries are not always repeated.

How the values were obtained:
[1] = test system: Abelson leukemia virus induced lymphomas; experiment: Lymphoma response to GCV in HSV-TK transgenic and nontransgenic mice; assay type: in vivo, mouse
Method: Lymphomas were induced by injecting 5 to 6 week old transgenic mice (generated as described in Example III) intravenously with 0.5 ml of cell-free medium from confluent cultures of 1806-6 cells grown in Dulbecco's medium containing 7% calf serum and 7% fetal bovine serum (Green et al., 1987). These cells produce helper-free Abelson leukemia virus, which induces monoclonal lymphomas principally of the fre-B cell type. The virus encodes a transforming protein but is defective and therefore incapable of replicating or of encoding retroviral antigens in the lymphoma cells it helps to generate. Starting 14 days after virus administration, the mice were palpated daily for lymphomas. These were detectable as small, firm, bilateral nodules in the inguinal region, representing enlarged inguinal lymph nodes. In most cases, the presence of the tumors could be suspected 1-2 days preceding a definitive diagnosis, but the latter was made only after daily palpation confirmed the presence and the growing nature of the enlarged nodes. In the litters used, more than 90% of the injected mice developed lymphomas.
In initial experiments, several transgenic mice were treated with GCV for 5 days (10 doses) without precautions against infection, based on dose schedules previously found to be well tolerated in nontransgenic mice [Moolten, Cancer Res. 46:5276-5281 (1986)]. […] Presuming these deaths to be due to infections consequent to the lymphoid depletion, we limited the GCV therapy to five doses for the subsequent trials reported below and instituted the short-term infection control regimen detailed above, which entailed the use of sterile cages and sterile food and water during a 21-day isolation period. These modifications eliminated all drug-related deaths.
GCV treatment was begun when lymphomas first appeared. […] After it was determined that death inevitably followed these preterminal symptoms, usually within 4 days, were killed animals when the symptoms first appeared rather than utilizing natural death as a survival end point; in the few cases where mice died with large tumors but without preterminal symptoms, the day of natural death was recorded as the end point. This practice introduced about 4 days of imprecision into the estimates of median survival but conforms to current humane guidelines [Medical Research Council, UK Coordinating Committee on Cancer Research: guidelines for the welfare of animals in experimental neoplasia (1988); Kallman et al., Cancer Res. 45:6541-6544 (1985)]. The transgenic mice and littermates were used from 10 litters born to 6 female line 563 transgenic mice mated to BALB/c males. The other nontransgenic controls listed comprised, in the GCV-treated group, 15 C57B1/6×BALB/c (CB6) mice F1 and F2generations) and 8 CB6F1×BALB/c mice, and in the untreated group 29 CB6 (F1 and F2,5 CB6F1×BALB/c, and 15 BALB/c mice. Since the founder mouse of the 563 line was heterozygous for genes derived from C57B1/6 and BALB/c mice, these additional mice complemented the littermate controls by eliminating the possibility that differences between transgenic mice and their littermates were attributable not to the transgene itself but to some other endogenous gene affecting the behavior of lymphomas that differ between C57B1/6 and BALB/c mice and which by accident of integration site found itself genetically linked to the transgene.

[2] = GCV serum and tissue concentration by miniosmotic pump (HPLC)
Method: Transgenic mice from founder line 563 and their non-transgenic litter mates were treated with the nucleoside analog GCV for 1 week by using a miniosmotic pump. […] A separate control group was implanted with a miniosmotic pump containing isotonic phosphate-buffered saline (PBS).

[3] = test system: thymus, spleen, bone marrow and mesenteric lymph nodes
From the text: The pathologic effect of GCV treatment was further evaluated by histological analysis.

[4] = test system: thymocytes; experiment: Recovery of the lymphoid system following GCV treatment; assay type: in vivo, mouse
Method: Recovery of the Lymphoid System following GCV Treatment. One potential advantage of the conditional ablation method is the ability to remove the drug and evaluate the regenerative capabilities of the affected cell lineages. Repopulation of specific thymocyte lineages in KHTK mice was examined by subjecting mice to a severe ablation of lymphoid tissues followed by a recovery period. Accordingly, one group of animals was treated with GCV or PBS for 7 days followed by a 7-day recovery period. All groups were assayed simultaneously for the total number of thymocytes and the presence of specific antigenic markers. Transgenic mice treated with PBS had 1.1×10^8 thymocytes, whereas, after 7 days of GCV treatment, >99% of the thymocyte population was depleted. After 7 days of recovery, the total number of cells increased by 60-fold to nearly 50% of the PBS-treated control group. To characterize specific populations of thymocytes in the depleted and recovery thymus, […] flow cytometry was performed. […] Nontransgenic mice treated with GCV had the same percentage of L3T4^+ and Lyt-2^+ thymocytes as PBS-treated animals.

[5] = test system: B and T lymphocytes; experiment: Flow cytometry of B and T lymphocytes after GCV treatment; assay type: in vivo, mouse
From the text: Although the pattern of toxicity was clearly lymphoid-specific, it was not possible to evaluate the impact of GCV treatment on subpopulations of B and T cells by visual inspection. Flow cytometry was employed to analyze specific populations of B and T lymphocytes in mice subjected to various GCV treatment protocols. B lymphocytes were identified by analyzine for the markers, immunoglobulin and B220, and T lymphocytes were identified by Thy-1. After 7 days of GCV treatment, striking and different effects were observed on B and T lymphocytes in spleens of KHTK mice (FIG. 4). The most dramatic impact was on immunoglobulin and B220-positive B cells, which were reduced by a factor of 20 after GCV treatment. Cells bearing the T-cell surface marker, Thy-1, had decreased to 35% of the PBS group. Thus, although both B and T cells in the periphery were sensitive to the toxic action of GCV, B-cell lineages were more susceptible to ablation.
Mice of transgenic line 552 or nontransgenic littermates were treated with GCV for 5 days. The thymuses of individual mice were assayed by two-color flow cytometry and reported as a percentage of total thymocytes expressing the indicated markers. Data are typical of three experiments.
Mice were treated with GCV for 5 days and then two-color flow cytometry was performed to assess the effect of GCV treatment on double-positive, single-positive, and double-negative populations. In non-transgenic mice, 80% of cells were double-positive, 14% were single-positive, and 5% were double-negative. The composition of cells surviving GCV treatment in transgenic mice was markedly altered from that of the control population. There was a relative depletion by a factor of 4 in the double-positive L3T4^+, Lyt-2^+ population and a 3- to 5-fold increase in single-positive L3T4^+, Lyt-2^− and L3T4^−, Lyt-2^+ cells. There was also an increase in the percentage of cells expressing T-cell receptor complex-associated molecule CD3.ε. […] There was also a 6-fold increase in L3T4^−, Lyt-2^− cells. […] It should be pointed out that, although single-positive and CD3^+ cells are relatively enriched in the thymus of drug-treated animals (i.e., percentage), in terms of absolute cell number all thymic lineages are ablated in drug-treated transgenic animals.

[6] = HSV-TK transgenics, GCV five doses
[7] = Nontransgenics Line 563 littermates, GCV
[8] = transgenic line 563, 7 days GCV
[9] = after 7 days of recovery following 7 days GCV
[10] = nontransgenic littermates, GCV 5 days
[11] = transgenic line 552, GCV 5 days
[12] = transgenic vs nontransgenic, GCV 5 days

Nc1nc2c(ncn2COC(CO)CO)c(=O)[nH]1 [GCV, 9-[(1,3-dihydroxy-2-propoxy)methyl]guanine]
Fraction of Mice with complete Regressions [1, 6]: 11 of 12 and 11/12
Median survival (days) of mice with recurrent or persistent lymphoma [1, 6]: 39 days
Number remaining recurrence-free for >100 days [1, 6]: 5
Fraction of Mice with complete Regressions [1, 7]: 0/17
Median survival (days) of mice with recurrent or persistent lymphoma [1, 7]: 13 days
Number remaining recurrence-free for >100 days [1, 7]: 0
Fraction of Mice with complete Regressions ([1]; Other nontransgenics, GCV): 0/23
Median survival (days) of mice with recurrent or persistent lymphoma ([1]; Other nontransgenics, GCV): 8 days
Number remaining recurrence-free for >100 days ([1]; Other nontransgenics, GCV): 0
survival of mice with late recurrences ([1]; three transgenic mice, GCV five doses): 47 days and 63 days and 90 days
tumor response ([1]; transgenic mice, GCV 5 days (10 doses), no precautions against infection): regressed and became undetectable after the fifth dose
outcome of mice ([1]; transgenic mice, GCV 5 days (10 doses), no precautions against infection, usually during the second week): the mice died
steady-state serum concentration ([2]; miniosmotic pump, within 24 hr, HPLC): 1 to 5 µM
concentration of GCV in all tissues assayed ([2]; relative to serum 1-5 μM): comparable to this value
number of cells in the bone marrow ([3]; GCV-treated transgenic mice): 15 % of control
number of cells in the spleen ([3]; GCV-treated transgenic mice): 15 % of control
number of cells in the thymus ([3]; GCV-treated transgenic mice): 2 % of control
cell counts of lymphoid tissues vs PBS-treated group ([3]; mouse, in vivo): unchanged
pathology in nontransgenic mice ([3]; mouse, in vivo): no apparent pathology
wet weights of lymph nodes [3, 8]: 20 % of control
wet weights of the spleen and thymus [3, 8]: 15 % of control
histology of thymus ([3]; transgenic mice, 7 days GCV): atrophied thymus with a virtual complete absence of the cortex and a hypocellular medulla
increase of total number of thymocytes [4, 9]: 60 fold
total number of thymocytes relative to PBS-treated control group [4, 9]: ~50%
nonspecific effects on T-cell lineages ([4]; nontransgenic mice, GCV 7 days and recovery): no nonspecific effects
thymocyte population depleted ([4]; transgenic mice, after 7 days of GCV treatment): > 99%
Thy-1 bearing cells in spleen ([5]; KHTK mice, 7 days GCV): 35 % of the PBS group
reduction factor of immunoglobulin and B220-positive B cells in spleen ([5]; KHTK mice, 7 days GCV): 20
single-positive cells ([5]; non-transgenic mice, GCV 5 days): 14%
% thymocytes CD3.ε+ [5, 10]: 35%
% thymocytes L3T4+, Lyt-2+ [5, 10]: 80%
% thymocytes L3T4+, Lyt-2- [5, 10]: 10%
% thymocytes L3T4-, Lyt-2+ [5, 10]: 4%
% thymocytes L3T4-, Lyt-2- [5, 10]: 5%
Total cell number (thymus) [5, 10]: 6.3 × 10^7
profile of antigenic markers ([5]; nontransgenic mice treated with GCV): normal
% thymocytes CD3.ε+ [5, 11]: 76%
% thymocytes L3T4+, Lyt-2+ [5, 11]: 21%
% thymocytes L3T4+, Lyt-2- [5, 11]: 27%
% thymocytes L3T4-, Lyt-2+ [5, 11]: 21%
% thymocytes L3T4-, Lyt-2- [5, 11]: 30%
Total cell number (thymus) [5, 11]: 3.8 × 10^6
increase in L3T4-, Lyt-2- cells [5, 12]: 6 fold
relative depletion factor of double-positive L3T4+, Lyt-2+ population [5, 12]: 4
